According to ChEMBL document CHEMBL5604062, “ASAP - ZIKV NS2B-NS3 protease fluorescence dose response” (2024):
Values joined by “and” are separate entries in the source; they are usually repeats but may differ in a detail not shown here. Identical values can stand only once. Residues, ends and D or L forms follow the SMILES beside them. *: point of attachment. pNA = O=[N+]([O-])c1ccc(N*)cc1; Boc = CC(C)(C)OC(=O)*

target: Nonstructural protein 3 (Zika virus, UniProt A0A024AXB9); experiment: Functional biochemical assay to identify treatments for viral infectious disease that targets Zika NS2B-NS3 protease. Utilizing a direct enzyme activity measurement method, reading the fluorescence intensity is used to characterize the relative potency of inhibitors as IC50.; parameters: species or system PRVABC59
Sequence (A0A024AXB9 whole entry): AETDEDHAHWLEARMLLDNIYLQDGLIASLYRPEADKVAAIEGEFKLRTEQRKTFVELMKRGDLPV

Row | IC50 | SMILES
1 | > 99.5 µM | CSCC[C@H](N)C(=O)N1CCC[C@H]1C(=O)Nc1ccc([N+](=O)[O-])cc1 (H-Met-Pro-pNA)
2 | 0.021 µM and 0.02 µM | O=C1Cc2c(cc(Br)cc2C(=O)Nc2ccc3c(c2)CNC3)N1
3 | > 25 µM | Cc1nn(C)c(C)c1[C@H]1CCCN1C(=O)Nc1ccc2c(c1)CNC2
4 | 0.176 µM | O=C(Nc1ccc2c(c1)CNC2)c1cc(F)cc2[nH]cnc12
5 | 22.1 µM | NCc1cccc(NC(=O)c2cc(NC(=O)OCc3ccccc3)cc(C3CC3)c2)c1
6 | > 99.5 µM | O=C(O)COc1cc2c(cc1Cc1c[nH]c3ccc(Cl)cc13)OCO2
7 | 16.8 µM | N#C[C@H](Nc1cc(Cl)cc(NC(=O)OCc2ccccc2)c1)c1ccc(-c2nn[nH]n2)cc1
8 | 53.8 µM | NCc1cccc(NC(=O)[C@H]2c3ccc(Br)cc3CCN2C(=O)OCc2ccccc2)c1
9 | 0.028 µM and 0.025 µM and 0.02 µM | O=C(Nc1cc2c(c(C3=CCOCC3)c1)CNC2)c1cc(F)cc2[nH]ncc12
10 | > 99.5 µM | CN(C)C(=O)[C@@H](NC(=O)OCc1ccccc1)c1ccc(OCc2ccccc2)cc1
11 | > 99.5 µM | CC(C)(C)OC(=O)NCc1cccc(NC(=O)[C@H](NC(=O)OCc2ccccc2)C2CCNCC2)c1
12 | > 99.5 µM | O=S(=O)(Nc1ccc(Cl)cc1CO)c1ccc(Oc2ccccc2Cl)cc1
13 | 24.6 µM and 27.6 µM and 24.8 µM | N#C[C@H](Nc1cccc(-c2nn[nH]n2)c1)c1cc(Cl)cc(NC(=O)OCc2ccccc2)c1
14 | > 99.5 µM | CN(C)CCOc1cccc(CNC(=O)[C@@H](NC(=O)OCc2ccccc2)c2ccc(OCc3ccccc3)cc2)c1
15 | > 99.5 µM | Cc1n[nH]cc1CC(=O)N1CCCC12CCN(C(=O)c1ccnc(CO)c1)CC2
16 | > 99.5 µM | CCN1C[C@H]2C[C@@H]1CN2c1nc2ccccc2n(CC)c1=O
17 | > 99.5 µM | Cc1cc(C(=O)Nc2cccc(CN)c2)nc(C)n1
18 | 0.395 µM | O=C(Nc1ccc2c(c1)CNC2)c1cc(Cl)cc2[nH]c(-c3cnccc3O)nc12
19 | > 25 µM | O=C(Nc1cc(-c2cccnc2)ccn1)c1nc(C2CC2)co1
20 | > 99.5 µM | COCCCC(=O)N1CCC([C@H](NC(=O)OCc2ccccc2)C(=O)Nc2cccc(CN)c2)CC1
21 | > 99.5 µM | CCn1c(=O)c(N2CC[C@@]3(CCCN3C)C2)nc2ccccc21
22 | 0.206 µM | O=C(Nc1ccc2c(c1)CNC2)c1cc(Br)cc2ccccc12
23 | > 99.5 µM | N#C[C@H](Nc1cccc(-c2nn[nH]n2)c1)c1cc(Cl)cc2[nH]ncc12
24 | > 99.5 µM | NC[C@H]1CC[C@H](NC(=O)c2cc(Cl)cc(NC(=O)OCc3ccccc3)c2)CC1
25 | > 99.5 µM | O=C(O)c1ccc(Cc2c[nH]c3ccc(Cl)cc23)cc1
26 | 0.137 µM | CCOCC1(c2nc3c(C(=O)Nc4ccc5c(c4)CNC5)cc(F)cc3[nH]2)CC1

Row | IC50 | SMILES
27 | > 25 µM | Cc1c(C(=O)Nc2cc(C3(C)OCCO3)ccn2)cc(C2CC2)n1C
28 | > 99.5 µM | Cc1c(C(=O)Nc2cccc(-c3nnn[nH]3)c2)sc2ccccc12
29 | 0.079 µM and 0.07 µM | O=C(Nc1ccc2c(c1)CNC2)c1cc(Cl)cc2ccncc12
30 | 0.062 µM and 0.038 µM | O=C(O)CCCc1cc(NC(=O)c2cc(F)cc3[nH]ncc23)cc2c1CNC2
31 | > 99.5 µM | O=C(Nc1cc(Cl)cc(C(=O)NC2(c3nn[nH]n3)CCCC2)c1)OCc1ccccc1
32 | > 99.5 µM | CCn1ccnc(N2CC[C@H](c3cccnc3)C2)c1=O
33 | > 99.5 µM | NS(=O)(=O)c1cc(F)c(Cl)cc1N1CCN(c2ccnc(O)c2)CC1
34 | > 99.5 µM | CCn1cnnc1COc1ccc(S(=O)(=O)Nc2ccc(Cl)cc2C(=O)O)cc1
35 | 25.1 µM | C[C@@H](Oc1ccc(S(=O)(=O)Nc2ccc(Cl)cc2C(=O)O)cc1)c1ccccc1F
36 | 0.857 µM | O=C(Nc1ccc2c(c1)CNC2)c1cc(Cl)ccc1SC1CCCC1
37 | > 99.5 µM | CCn1cc(C(=O)O)nc(N2CC[C@@H](CO)C2)c1=O
38 | > 25 µM | CC(C)(C)c1noc2nc(C(=O)Nc3ccc4c(c3)CNC4)ccc12
39 | > 99.5 µM | Cn1cc(CCOc2ccc([C@@H](NC(=O)OCc3ccccc3)C(=O)Nc3cccc(CN)c3)cc2)nn1
40 | > 25 µM | Cc1[nH]nc2c1CC[C@H](NC(=O)c1cccc3c1CC(=O)N3)C2
41 | > 25 µM | NCCc1cc(C(=O)Nc2cc(-c3cccnc3)ccn2)no1
42 | 19.6 µM | O=C(Nc1ccc2c(c1)CNC2)c1cnnc2ccccc12
43 | > 99.5 µM | NCc1ccc(NS(=O)(=O)c2ccc(Oc3ccccc3Cl)cc2)cc1
44 | > 99.5 µM | Cn1ccc(CS(=O)(=O)N[C@@H](C(=O)Nc2cccc(CN)c2)c2ccc(OCc3ccccc3)cc2)n1
45 | > 99.5 µM | CSCC[C@H](NC(=O)OC(C)(C)C)C(=O)N1CCC[C@H]1C(=O)Nc1ccc([N+](=O)[O-])cc1 (Boc-Met-Pro-pNA)
46 | 30.3 µM | O=C(O)c1cc(Cl)c(F)cc1NS(=O)(=O)c1ccc(Oc2ccccc2)cc1
47 | 7.26 µM | C[C@H]1CNC[C@@H]1c1ccc(NC(=O)c2cc(Cl)cc(NC(=O)OCc3ccccc3)c2)cc1
48 | 88.8 µM | O=C(O)c1cc(F)c(F)c(F)c1NS(=O)(=O)c1ccc(Oc2ccccc2Cl)cc1
49 | > 99.5 µM | CCNC(=O)Nc1cc(Cl)cc(C(=O)O)c1
50 | > 99.5 µM | Cc1nnsc1Cn1ccc(Br)n1
51 | > 99.5 µM | CCn1ccnc(N2CC[C@@H](Cc3ccncc3)C2)c1=O
52 | 0.029 µM and 0.013 µM | CNC(=O)[C@H](Nc1ccc2c(c1)CNC2)c1cc(Cl)cc2[nH]c(-c3ccccc3)nc12

Row | IC50 | SMILES
53 | 95.2 µM | NCc1cccc(NC(=O)[C@H](NC(=O)c2ccns2)c2ccc(OCc3ccccc3)cc2)c1
54 | > 99.5 µM | NCc1cccc(NC(=O)[C@@H](NC(=O)OCc2ccccc2)C2CCN(Cc3ccncc3)CC2)c1
55 | 26.4 µM | NS(=O)(=O)c1ccc(C2CCN(Cc3c[nH]c4ccccc34)CC2)cc1
56 | > 99.5 µM | O=C(N[C@H](C(=O)NCc1ccccc1CO)c1ccc(OCc2ccccc2)cc1)OCc1ccccc1
57 | > 99.5 µM | CCCCCNC(=O)c1cc(Cl)ccc1NS(=O)(=O)c1ccc(Oc2ccccc2Cl)cc1
58 | > 99.5 µM | CCOC(=O)c1[nH]c(C)c(C(=O)Nc2cccc(CN)c2)c1CC
59 | > 99.5 µM | CNC(=O)[C@H](Nc1cc(Cl)cc(C2CC2)c1)c1ccc(-c2nn[nH]n2)cc1
60 | > 25 µM | CNC(=O)C[C@H]1CC[C@@H](NC(=O)c2cccc3c2CC(=O)N3)CC1
61 | 0.026 µM and 0.014 µM | O=C1Cc2c(cc(F)cc2C(=O)Nc2ccc3c(c2)CNC3)N1
62 | 0.039 µM and 0.024 µM | O=C(Nc1ccc2c(c1)CNC2)c1cc(F)cc2[nH]c(-c3ccc(F)cc3O)nc12
63 | > 99.5 µM | C[C@H]1C[C@@H](C(=O)Nc2cccc(CN)c2)CC(=O)N1
64 | 16.4 µM | CC(C)(C)OC(=O)N1Cc2cc(NC(=O)c3cc(Cl)cc4[nH]ncc34)cc(Br)c2C1
65 | > 99.5 µM | CC[C@H]1CN2CCC[C@H]2CN1c1nc2ccccc2n(CC)c1=O
66 | 21.2 µM | O=C(Nc1cc(Cl)cc(C(=O)Nc2ccc([C@]34CNC[C@H]3C4)cc2)c1)OCc1ccccc1
67 | 29.8 µM | Cc1csc(COc2cccc([C@H](NC(=O)OCc3ccccc3)C(=O)Nc3cccc(CN)c3)c2)n1
68 | > 99.5 µM | Cc1c(C(=O)Nc2cc(C(N)=O)c3ccccc3n2)cc(C2CC2)n1C
69 | 34.4 µM | c1ccc(-c2[nH]c3ccccc3c2CN2CCC(c3cscn3)CC2)cc1
70 | > 25 µM | Cc1c(C(=O)Nc2cccc(C3CCOCC3)c2)cc(C2CC2)n1C
71 | 3.99 µM | CNC(=O)[C@H](Nc1cc(Cl)cc2[nH]ncc12)c1ccc2c(c1)CNC2
72 | 0.14 µM | CCc1cc2c(cc1NC(=O)c1cc(F)cc3[nH]ncc13)CNC2
73 | > 25 µM | COc1cc(C(=O)Nc2ccc3c(c2)CNC3)cc2cnn(C)c12
74 | > 99.5 µM | Oc1cc(N2CCN(Cc3c[nH]c4ccccc34)CC2)ccn1
75 | 5.84 µM and > 25 µM | Cc1c(C(=O)Nc2cc(-c3cccnc3)ccn2)cc(C2CC2)n1C
76 | > 99.5 µM | CCn1cc(-c2ccc(CN(C)C)cc2)nc(N2CC[C@@H](CO)C2)c1=O
77 | > 99.5 µM | CS(=O)(=O)Nc1c(Cl)cc(Cl)cc1C(=O)Nc1cccc(CN)c1
78 | 1.93 µM | CC(=O)N(c1ccc2c(c1)CNC2)[C@H](C(=O)NCC(F)F)c1cc(Cl)cc(C2CC2)c1

Row | IC50 | SMILES
79 | > 99.5 µM | CCn1ccc2cc(CN3CCC(c4c[nH]c5cccnc45)CC3)ccc21
80 | > 25 µM | C[C@](C#N)(Nc1ccc2c(c1)CNC2)c1cccc(Cl)c1
81 | > 99.5 µM | O=C(O)c1cc(Cl)ccc1S(=O)(=O)Nc1ccc(S(=O)(=O)Nc2ccccc2)cc1
82 | > 99.5 µM | NCc1cccc(NC(=O)[C@@H](NC(=O)OCc2ccccc2)c2ccc(OCc3cnccn3)cc2)c1
83 | 0.706 µM | CCSc1ccc(Cl)cc1C(=O)Nc1ccc2c(c1)CNC2
84 | > 99.5 µM | C[C@@]1(CNC(=O)c2cc(Cl)cc(NC(=O)OCc3ccccc3)c2)CNCCOC1
85 | > 99.5 µM | CN(c1ccc(Oc2ccccc2Cl)cc1)S(=O)(=O)c1cc(F)c(Cl)cc1C(=O)O
86 | > 99.5 µM | Cc1cc(Cl)cc(C(=O)Nc2cccc(CN)c2)n1
87 | 82.1 µM | CCS(=O)(=O)c1ccc(Cl)cc1C(=O)Nc1cccc(CN)c1
88 | 0.058 µM and 0.033 µM | O=C(Nc1ccc2c(c1)CNC2)c1cc(Cl)cc2c1cnn2C1CCOCC1
89 | > 99.5 µM | Cc1ccc(NC(=O)OC(C)(C)C)c2[nH]cc(CN3CCC(c4cscn4)CC3)c12
90 | > 99.5 µM | CC[C@H]1CCN(c2nccn(CC)c2=O)C1
91 | > 99.5 µM | CN(C)Cc1ccccc1CNC(=O)[C@@H](NC(=O)OCc1ccccc1)c1ccc(OCc2ccccc2)cc1
92 | > 99.5 µM | O=C(NCCO)c1cc(Cl)ccc1NS(=O)(=O)c1ccc(Oc2ccccc2Cl)cc1
93 | > 25 µM | Cc1c[nH]c2ncnc(C(=O)Nc3ccc4c(c3)CNC4)c12
94 | > 99.5 µM | O=C(Cn1ccnc(N2CC[C@H](CO)C2)c1=O)N[C@H]1CCOC1
95 | > 99.5 µM | CC(=O)NCc1cccc(NC(=O)c2cc(Cl)cc(NC(=O)OCc3ccccc3)c2)c1
96 | 0.291 µM | O=C(NCC(F)F)[C@H](Nc1ccc2c(c1)CNC2)c1cc(Cl)cc2[nH]ncc12
97 | 5.21 µM | N[C@H]1CCc2cc(NC(=O)c3cc(Cl)cc4[nH]ncc34)ccc21
98 | > 99.5 µM | NCc1cccc(NC(=O)C[C@@H](NC(=O)OCc2ccccc2)c2ccc3c(c2)OCO3)c1
99 | > 99.5 µM | c1cncc([C@@H]2CN(Cc3c[nH]c4ccccc34)CCO2)c1
100 | > 25 µM | Cn1nc(C(F)(F)F)cc1C(=O)Nc1cc(-c2cccnc2)ccn1
101 | > 99.5 µM | CC(C)Nc1nc2ccc(C(=O)Nc3ccc4cn[nH]c4n3)cc2[nH]1
102 | > 99.5 µM | C=CC[C@H](Nc1cc(CN)ccn1)c1cc(Cl)cc(NC(=O)OCc2ccccc2)c1

Row | SMILES | IC50
103 | O=C(Nc1ccc2c(n1)CNC2)c1cc(Cl)cc2[nH]ncc12 | 0.608 µM
104 | N=C(N)Nc1ccc(NC(=O)Oc2ccccc2)cc1 | > 100 µM
